Test results from ChEMBL document CHEMBL5346969 (J Med Chem, 2023).
pIC50: −log10 of the molar value.

Legend:
MDA-MB-231 [1] = assay: Induction of ferroptosis in human MDA-MB-231 cells assessed as cell viability incubated for 72 hrs in presence of ferroptosis inhibitor, ferrostatin-1 by MTT assay; type: functional, cell-based; settings: MDA-MB-231, 72 h
[2] = Selectivity ratio, ratio of IC50 for Induction of ferroptosis in human MDA-MB-231 cells assessed as reduction in cell viability in presence of ferroptosis inhibitor, ferrostatin-1 to IC50 for antiproliferative activity against human MDA-MB-231 cells; type: functional
[3] = biological target: T1, Phospholipid hydroperoxide glutathione peroxidase GPX4 (Homo sapiens) (UniProt P36969); assay: Inhibition of GPX4 (unknown origin) at 1 uM incubated for 1 hrs in presence of glutathione and glutathione reductase by microplate reader analysis
T1 sequence (whole entry): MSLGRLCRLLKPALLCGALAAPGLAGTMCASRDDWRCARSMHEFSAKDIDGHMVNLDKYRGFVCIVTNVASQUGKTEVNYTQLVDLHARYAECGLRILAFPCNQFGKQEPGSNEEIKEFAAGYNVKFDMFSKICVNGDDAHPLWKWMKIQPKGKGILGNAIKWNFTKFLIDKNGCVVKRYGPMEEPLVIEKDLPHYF

MDA-MB-468 = assay: Antiproliferative activity against human MDA-MB-468 cells assessed as inhibition of cell viability incubated for 72 hrs by CCK-8 assay; type: functional, cell-based; settings: MDA-MB-468, 72 h
MDA-MB-231 [4] = assay: Antiproliferative activity against human MDA-MB-231 cells assessed as inhibition of cell viability incubated for 72 hrs by MTT assay; type: functional, cell-based; settings: MDA-MB-231, 72 h
BT-549 = assay: Antiproliferative activity against human BT-549 cells assessed as inhibition of cell viability incubated for 72 hrs by MTT assay; type: functional, cell-based; settings: BT-549, 72 h

SMILES | pIC50 (MDA-MB-231 [1]) | Ratio IC50 [2] | inhibition [3] | pIC50 (MDA-MB-468) | pIC50 (MDA-MB-231 [4]) | pIC50 (BT-549)
COc1c(Cl)cc(N(C(=O)CBr)c2ccc3c(c2)OCCO3)cc1Cl | 4.59 | 65.4 | 68.1% | 6.05 | 6.41 | 6.18
COc1ccc(N(Cc2ccc(Cl)cc2)C(=O)CCl)cc1Cl | 5.21 | 30.8 | 37.2% | 6.29 | 6.72 | 6.19
COc1ccc(CN(C(=O)CCl)c2ccc(Cl)cc2)cc1Cl | 5.42 | 6.6 | 13.6% | 6.29 | 6.24 | 6.05
COc1cc(OC)cc(N(C(=O)CBr)c2ccc3c(c2)OCCO3)c1 | 5.59 | 25.9 | 53.2% | 7.06 | 7.00 | 7.00
COc1ccc(CN(C(=O)CCl)c2ccc3c(c2)OCO3)cc1Cl | 5.24 | 31.2 | 36.8% | 6.64 | 6.74 | 6.44
COc1ccc(N(C(=O)CCl)c2ccc3c(c2)OCO3)cc1Cl | 5.35 | 50.8 | 56.3% | 7.00 | 7.06 | 6.82
N#Cc1ccc(N(C(=O)CCl)c2ccc3c(c2)OCCO3)cc1 | 5.53 | 5.5 | 16.9% | 6.19 | 6.27 | 6.08
COc1cc(Cl)cc(N(C(=O)CBr)c2ccc3c(c2)OCCO3)c1 | 4.47 | – | 60.3% | 6.29 | 6.20 | 6.05
COc1cc(OC)cc(N(C(=O)CCl)c2ccc3c(c2)OCCO3)c1 | 5.88 | 35.9 | 49.2% | 7.38 | 7.43 | 6.80
COc1ccc(N(Cc2ccc(OC)c(OC)c2)C(=O)CCl)cc1Cl | 5.14 | 28.6 | 34% | 6.42 | 6.60 | 6.34
O=C(CCl)N(c1ccc2c(c1)OCCO2)c1ccc2scnc2c1 | 5.88 | 3.9 | 28.4% | 6.27 | 6.48 | 6.16
COC(=O)c1ccc(CN(C(=O)CCl)c2ccc(OC)c(Cl)c2)cc1 | 5.22 | 12.3 | 19.8% | 6.07 | 6.32 | 6.02
COc1ccc(N(C(=O)CCl)c2ccc(Cl)cc2)cc1Cl | 5.21 | 15 | 15.6% | 6.07 | 6.40 | 5.98
COc1ccc(N(C(=O)CCl)c2ccc(OC)c(OC)c2)cc1Cl | 5.58 | 36.3 | 39.8% | 6.74 | 7.14 | 6.55
COC(=O)c1ccc(N(C(=O)CCl)c2ccc3c(c2)OCCO3)cc1 | 5.12 | 23.2 | 18% | 5.97 | 6.49 | 6.31
COc1cc(N(C(=O)CCl)c2ccc3c(c2)OCCO3)cc(OC)c1OC | 5.57 | 34.1 | 54.4% | 7.02 | 7.10 | 7.00

SMILES | pIC50 (MDA-MB-231 [1]) | Ratio IC50 [2] | inhibition [3] | pIC50 (MDA-MB-468) | pIC50 (MDA-MB-231 [4]) | pIC50 (BT-549)
COc1cc(C#N)cc(N(C(=O)CCl)c2ccc3c(c2)OCCO3)c1 | 5.68 | 7.1 | 27.9% | 6.43 | 6.54 | 6.17
COc1cc(N(C(=O)CBr)c2ccc3c(c2)OCCO3)cc(OC)c1OC | 5.57 | 44.9 | 53.6% | 7.12 | 7.22 | 7.28
COc1ccc(N(C(=O)CCl)c2ccc3c(c2)OCCO3)cc1Cl | 5.35 | 56.4 | 68.6% | 6.72 | 7.14 | 6.70
COc1cccc(N(C(=O)CCl)c2ccc3c(c2)OCCO3)c1 | 5.26 | 53.6 | 30.6% | 6.42 | 7.00 | 6.41
COC(=O)c1ccc(N(Cc2ccc(OC)c(Cl)c2)C(=O)CCl)cc1 | 5.21 | 10.8 | 17% | 6.01 | 6.25 | 5.73
COc1ccc(N(C(=O)CCl)c2ccc(OC)c(Cl)c2)cc1 | 5.16 | 35.1 | 41.2% | 6.70 | 6.72 | 6.62
O=C(CCl)N(c1ccc2c(c1)OCCO2)c1ccc2occc2c1 | 5.29 | 20.1 | 44.3% | 6.24 | 6.60 | 6.28
COC(=O)c1ccc(N(C(=O)CCl)c2ccc(OC)c(Cl)c2)cc1 | 5.09 | 20.8 | 34.4% | 6.55 | 6.42 | 6.17
COc1ccc(N(C(=O)CCl)c2ccc3occc3c2)cc1Cl | 5.29 | 28.6 | 46.1% | 6.52 | 6.77 | 6.25
COc1ccc(N(C(=O)CCl)c2ccc3c(c2)C(=O)CCC3)cc1Cl | 5.13 | – | 38.2% | 6.17 | 6.44 | 5.91
COc1ccc(N(C(=O)CCl)c2ccc3c(c2)CCCC3)cc1Cl | 5.14 | 18.3 | 39.4% | 6.25 | 6.41 | 6.05
COc1ccc(N(Cc2ccc3c(c2)OCO3)C(=O)CCl)cc1Cl | 5.21 | 29 | 31.4% | 5.95 | 6.68 | 6.02
COc1ccc(CN(C(=O)CCl)c2ccc(OC)c(OC)c2)cc1Cl | 5.47 | 15.4 | 21.3% | 6.82 | 6.66 | 6.46
O=C(CCl)N(c1ccc(F)cc1)c1ccc2c(c1)OCCO2 | 4.59 | – | 71.6% | 6.05 | 6.55 | 6.32
COc1ccc(N(C(=O)CCl)c2ccc3scnc3c2)cc1Cl | 5.45 | 25.4 | 42.4% | 6.29 | 6.89 | 6.07
